Results from the Deep4Chem optical property database.
“And” between values parts separate entries of the source, which are not always exact repeats. Equal entries are not always repeated.

Assay: solvent given as SMILES

Which emission maximum (in Cc1ccccc1) does the source give for `c1ccc(-n2c3ccccc3c3c2c2ccccc2n3-c2ccccc2)cc1` here?
The emission maximum was 376 nm.

Which results are given for `CC1(C)c2ccccc2-n2c(-c3ccc(N4c5ccccc5Oc5ccccc54)cc3)nc3cccc1c32`?
emission maximum (in Cc1ccccc1): 502 nm; emission maximum (in O=P(c1ccccc1)(c1ccccc1)c1ccccc1Oc1ccccc1P(=O)(c1ccccc1)c1ccccc1): 485 nm

Which emission maximum (in C1COCCO1) does the source give for `COC(=O)c1ccc(/C=C2\N=C(c3ccc(OC)c(OC)c3)NC2=O)cc1` here?
The emission maximum was 478 nm.

Which emission maximum (in C1CCOC1) does the source give for `O=CC1=C(c2ccc(-c3cccs3)s2)CC1` here?
The emission maximum was 470 nm.

What about the emission maximum (in CC#N) of the same molecule?
Its emission maximum is 493 nm.

What about the emission maximum (in CCCCCC) of the same molecule?
The emission maximum was 464 nm.

And the emission maximum (in CCO)?
Its emission maximum is 516 nm.

What about the emission maximum (in OCCOCCO) of the same molecule?
Its emission maximum is 526 nm.

What about the emission maximum (in c1ccncc1) of the same molecule?
The emission maximum was 495 nm.

For `COc1ccc(OC)c(C(=O)O)c1`, which emission maximum (in CO) is on record?
Its emission maximum is 388 nm.

Which emission maximum (in ClCCl) does the source give for `CCOCCOCCOC(=O)/C=C/C1=CC2=C(c3c(C)cc(C)cc3C)c3cccn3[B-](F)(F)[N+]2=C1` here?
Its emission maximum is 567 nm.

For `O=C1[C@@H]2[C@H](C(=O)N1c1cccc3cc4ccccc4cc13)[C@@H]1C=C[C@H]2C1`, which emission maximum (in ClC(Cl)Cl) is on record?
The emission maximum was 392 nm.

Which emission maximum (in ClCCl) does the source give for `CC(C)(C)c1ccc(-n2c(-c3ccc(-c4ccc(N(c5ccccc5)c5ccccc5)cc4)s3)nc3c4ccccc4c4ccccc4c32)cc1` here?
The emission maximum was 419 nm.

Which emission maximum (in C1CCCCC1) does the source give for `COc1c(-c2ccc(N(C)C)cc2)oc2ccccc2c1=O` here?
Its emission maximum is 413.89 nm.

And the emission maximum (in CC#N)?
The emission maximum was 490.48 nm.

And the emission maximum (in CCOC(C)=O)?
The emission maximum was 468.65 nm.

Which emission maximum (in CC#N) does the source give for `Nc1n[n+]([O-])c2ccccc2[n+]1[O-]` here?
Its emission maximum is 505 nm.

What about the emission maximum (in O) of the same molecule?
The emission maximum was 545 nm.

Which emission maximum (in C1CCCCC1) does the source give for `Oc1ccccc1-c1nc(-c2ccccc2)c2ccccn12` here?
The emission maximum was 479 nm.

What about the emission maximum (in CC#N) of the same molecule?
The emission maximum was 480 nm.

What about the emission maximum (in CO) of the same molecule?
Its emission maximum is 474 nm.

And the emission maximum (in ClCCl)?
Its emission maximum is 484 nm.

What about the emission maximum (in O) of the same molecule?
Its emission maximum is 481 nm.

Which emission maximum (in Cc1ccccc1) does the source give for `c1cc2c3c(c1)-c1cccc4cccc(c14)B3c1cccc3cccc-2c13` here?
The emission maximum was 491 nm.

Which emission maximum (in ClC(Cl)Cl) does the source give for `Cc1ccccc1C1CC(=O)Oc2c1c1nc3ccccc3nc1c1ccccc21` (stereo unspecified) here?
Its emission maximum is 434 nm.

For `CN(C)c1ccc(N(C)C)cc1`, which emission maximum (in C1CCCCC1) is on record?
Its emission maximum is 394.48 nm.

With `CN(C)c1ccc2nc(-c3ccccc3)sc2c1` as the molecule, how does the emission maximum (in C1CCCCC1) read?
The emission maximum was 393 nm.

What about the emission maximum (in CC#N) of the same molecule?
The emission maximum was 474 nm and 475 nm.

And the emission maximum (in CC(C)O)?
Its emission maximum is 468 nm and 488.03 nm.

What about the emission maximum (in CO) of the same molecule?
Its emission maximum is 484 nm and 483 nm.

What about the emission maximum (in CS(C)=O) of the same molecule?
Its emission maximum is 486 nm and 486.82 nm.

What about the emission maximum (in ClC(Cl)Cl) of the same molecule?
Its emission maximum is 442 nm and 443 nm.

What about the emission maximum (in c1ccccc1) of the same molecule?
Its emission maximum is 429 nm and 441.38 nm.

With `c1cc2c3c(cccc3c1)-c1cc3c(ccc4ccccc43)cc1-2` as the molecule, how does the emission maximum (in CCCCCCC) read?
The emission maximum was 410 nm.

Which results are given for `COc1cc(N(c2ccccc2)c2ccc(C=C(C#N)C#N)c(OC)c2)ccc1C=C(C#N)C#N`?
emission maximum (in C1COCCO1): 520 nm; emission maximum (in CC#N): 571 nm; emission maximum (in CC(C)=O): 562 nm; emission maximum (in CCOC(C)=O): 532 nm; emission maximum (in CN(C)C=O): 576 nm; emission maximum (in CO): 558 nm; emission maximum (in Cc1ccccc1): 500 nm; emission maximum (in ClC(Cl)Cl): 524 nm; emission maximum (in ClCCl): 534 nm

Which results are given for `c1ccc2cc(-c3cc(-c4nccs4)nc(-c4nccs4)c3)ccc2c1`?
emission maximum (in CC#N): 385 nm; emission maximum (in CCCCCC): 361 nm; emission maximum (in CO): 392 nm; emission maximum (in ClC(Cl)Cl): 372 nm

Which emission maximum (in ClCCl) does the source give for `Clc1ccc(N2c3sc4ccccc4c3Sc3c2sc2ccccc32)cc1` here?
The emission maximum was 546 nm.

With `CCC[Si](CCC)(CCC)c1cc2ccc3cccc4ccc(c1C(=O)NC(C)(C)C)c2c34` as the molecule, how does the emission maximum (in ClC(Cl)Cl) read?
The emission maximum was 383 nm.

Which emission maximum (in C1CCOC1) does the source give for `CCC1(CC)c2ccccc2-c2c1c1c(c3c2C(CC)(CC)c2cc(/C=C/c4cccs4)ccc2-3)C(CC)(CC)c2ccccc2-1` here?
Its emission maximum is 395 nm.

Which emission maximum (in O) does the source give for `CC[n+]1c(-c2ccccc2)c2cc(-n3cccc3)ccc2c2ccc(-n3cccc3)cc21` here?
Its emission maximum is 502 nm.

With `O=C(O)CCCCCn1c2ccc(Br)cc2c(=O)c2cc(S(=O)(=O)O)ccc21` as the molecule, how does the emission maximum (in O) read?
Its emission maximum is 435 nm.

With `CCCC1(CCC)c2cc(-c3ccc(-c4ccccc4)cc3)ccc2-c2ccc(-c3ccc4c(c3)C(CCC)(CCC)c3cc(-c5ccc(-c6ccccc6)cc5)ccc3-4)cc21` as the molecule, how does the emission maximum (in Cc1ccccc1) read?
The emission maximum was 402 nm.

With `Oc1c(-c2cccs2)cccc1-c1nc2ccccc2s1` as the molecule, how does the emission maximum (in CCO) read?
The emission maximum was 585 nm.

And the emission maximum (in ClCCl)?
The emission maximum was 585 nm.

What about the emission maximum (in O) of the same molecule?
The emission maximum was 587 nm.

What does the source list for `O=C1c2ccc(N(c3ccccc3)c3ccccc3)cc2C(=O)c2ccc(N(c3ccccc3)c3ccccc3)cc21`?
emission maximum (in Cc1ccccc1): 601 nm; emission maximum (in c1ccc2c(c1)c1ccccc1n2-c1ccc(-c2ccc(-n3c4ccccc4c4ccccc43)cc2)cc1): 593 nm

For `Cc1cc(C)c(B(c2ccc(N(c3ccccc3)c3ccccc3)cc2)c2c(C)cc(C)cc2C)c(C)c1`, which emission maximum (in Cc1ccccc1) is on record?
The emission maximum was 437 nm.

For `COc1ccc(-n2nc(C(=O)c3ccc(Cl)cc3)c(N3CCCC3)n2)cc1`, which emission maximum (in CC#N) is on record?
The emission maximum was 421 nm.

With `CC1(C)c2ccccc2N(c2ccc3c(c2)S(=O)(=O)c2cc(N4c5ccccc5C(C)(C)c5ccccc54)ccc2C3(C)C)c2ccccc21` as the molecule, how does the emission maximum (in Cc1ccccc1) read?
Its emission maximum is 466.12 nm.

What about the emission maximum (in ClCCl) of the same molecule?
Its emission maximum is 506 nm.

With `CCCC1(CCC)c2cc(-c3ccco3)ccc2-c2ccc(-c3ccco3)cc21` as the molecule, how does the emission maximum (in C1CCCCC1) read?
The emission maximum was 377 nm.

For `Clc1ccc(-c2nc3ccccc3c3cc4ccccn4c23)s1`, which emission maximum (in CS(C)=O) is on record?
The emission maximum was 523.5 nm.

Which emission maximum (in C1CCOC1) does the source give for `Cc1cccc2[n+]1[B-](F)(F)n1c(c3cccc4cccc1c43)=N2` here?
The emission maximum was 496 nm.

What about the emission maximum (in CC#N) of the same molecule?
The emission maximum was 495 nm.

What about the emission maximum (in CCCCCC) of the same molecule?
The emission maximum was 494 nm.

And the emission maximum (in Cc1ccccc1)?
The emission maximum was 498 nm.

What about the emission maximum (in ClCCl) of the same molecule?
The emission maximum was 521 nm.

With `C(=C(c1ccccc1)c1ccccc1)c1ccc(-c2cc(-c3ccc(C=C(c4ccccc4)c4ccccc4)cc3)c(-c3ccc(C=C(c4ccccc4)c4ccccc4)cc3)cc2-c2ccc(C=C(c3ccccc3)c3ccccc3)cc2)cc1` as the molecule, how does the emission maximum (in C1CCOC1) read?
The emission maximum was 440 nm.
